Laboratory results: patent US20240076666A1, “Immunomodulators Targeting MORC3 for Interferon Induction” (The Regents of the University of California, priority 2021, published 2024)

System: BLaER1 monocytes
Experiment: Ectopic doxycycline-inducible expression of virulence factors, IFN induction by q-RT-PCR
Type: cell-based, human
Conditions: doxycycline-inducible lentiviral expression in BLaER1 monocytes, doxycycline 24 h; gene expression by q-RT-PCR
Method: BLaER1, U937 and THP-1 cells were cultured in RPMI Medium 1640 supplemented with L-glutamine, sodium pyruvate, 100 U/ml penicillin-streptomycin (Thermo Fisher) and 10% (v/v) FCS (Omega Scientific). HEK293T, U2OS and HCT116 cells were cultivated in DMEM Medium (Thermo Fisher) containing the same supplements. 1.4 million BLaER1 cells per well of a 6-well plate were trans-differentiated into monocytes for 5-6 days in medium containing 10 ng/ml of hrIL-3, 10 ng/ml hr-CSF-1 (M-CSF) (both PeproTech) and 100 nM β-Estradiol (Sigma-Aldrich) as previously described. 1.4 million THP-1 and U937 cells per well of a 6-well plate were differentiated overnight with 100 ng/ml PMA (Sigma-Aldrich). STING-deficient and corresponding control THP1 and U937 cells were a gift from Dan Stetson (University of Washington). BLaER1 cells were a gift from Thomas Graf (CRG, Barcelona, Spain) and Veit Hornung (LMU Munich, Germany). U2OS cells were a gift from Robert Tjian and Xavier Darzacq (UC Berkeley). THP1 cells were from ATCC. U937 cells were from the UC Berkeley Cell Culture Facility. HCT116 cells were a gift from David Raulet (UC Berkeley). […]
Gene expression was quantified by quantitative PCR with reverse transcription (RT-qPCR). […] SYBRGreen dye (Thermo Fisher Scientific) was used for quantitative PCR assays and analyzed with a real-time PCR system (StepOnePlus; Applied Biosystems). […]

Substance	IFN induction (IFN response)
ICP0 D199A: predominantly nuclear variant of ICP0	not impaired in IFN induction
ICP0: key virulence factor of Herpes Simplex Virus-1, SUMO-directed E3 ubiquitin ligase; Accession No. YP_009137074.1, SEQ ID NO: 2	led to an IFN response
